From article PMC6220894 (Food and chemical toxicology : an international journal …, 2018)
Like-named read-outs stand apart in the source and are kept apart here.

What was measured:
in vitro = conditions: both, human, plasma, pH 7.4
[1] = test system: Salmonella typhimurium TA 1535; assay type: cell-based; conditions: plate incorporation
[2] = test system: Salmonella typhimurium TA 100; assay type: cell-based; conditions: plate incorporation
[3] = test system: Salmonella typhimurium TA 1535; assay type: cell-based; conditions: pre-incubation
[4] = test system: Salmonella typhimurium TA 100; assay type: cell-based; conditions: pre-incubation
[5] = test system: Salmonella typhimurium TA 1537; assay: Ames bacterial reverse mutation assay, plate incorporation method; assay type: cell-based
[6] = test system: Salmonella typhimurium TA 98; assay: as above; assay type: cell-based
[7] = test system: Salmonella typhimurium TA 1537; assay: Ames bacterial reverse mutation assay, pre-incubation method; assay type: cell-based
[8] = test system: Salmonella typhimurium TA 98; assay: as above; assay type: cell-based
[9] = test system: Salmonella typhimurium TA 102; assay: Ames bacterial reverse mutation assay, plate incorporation method; assay type: cell-based
[10] = test system: Salmonella typhimurium TA 102; assay: Ames bacterial reverse mutation assay, pre-incubation method; assay type: cell-based
plasma protein = conditions: human plasma; 1 µM; mean ± SE
[11] = −S9, positive control 0.01 mg/plate
[12] = −S9, positive control 0.05 mg/plate
[13] = +S9, positive control 0.0025 mg/plate
[14] = +S9, positive control 0.01 mg/plate
[15] = −S9, positive control 4 µL/plate

CC(=O)CC(c1ccccc1)c1c(O)c2ccccc2oc1=O (stereo not shown) [Warfarin, reference compound]
fraction unbound at 4 h, 1 µM (in vitro): 0.035 ± 0.003

[N-]=[N+]=[N-].[Na+] [sodium azide, reference compound]
Mean plate counts (revertant colonies) [1, 11]: 966.7±12.2 | Mean plate counts (revertant colonies) [2, 11]: 870.7±39.3 | Mean plate counts (revertant colonies) [3, 11]: 974.7±41.1 | Mean plate counts (revertant colonies) [4, 11]: 1181.3±50.6

Nc1ccc([N+](=O)[O-])cc1N [4-NOPD, 4-nitro-o-phenylenediamine, reference compound]
Mean plate counts (revertant colonies) [5, 12]: 107.0±6.2 | Mean plate counts (revertant colonies) [6, 11]: 296.0±8.0 | Mean plate counts (revertant colonies) [7, 12]: 120.0±12.0 | Mean plate counts (revertant colonies) [8, 11]: 674.0±34.7

Nc1ccc2cc3ccccc3cc2c1 [2-aminoanthracene, reference compound]
Mean plate counts (revertant colonies) [1, 13]: 150.0±12.5 | Mean plate counts (revertant colonies) [5, 13]: 133.3±8.1 | Mean plate counts (revertant colonies) [6, 13]: 741.3±63.8 | Mean plate counts (revertant colonies) [2, 13]: 1042.0±61.3 | Mean plate counts (revertant colonies) [9, 14]: 1716.7±134.6 | Mean plate counts (revertant colonies) [3, 13]: 132.7±9.9 | Mean plate counts (revertant colonies) [7, 13]: 125.0±5.0 | Mean plate counts (revertant colonies) [8, 13]: 958.0±83.6 | Mean plate counts (revertant colonies) [4, 13]: 1118.0±42.6 | Mean plate counts (revertant colonies) [10, 14]: 1395.3±153.1

COS(C)(=O)=O [methyl methanesulphonate, methyl methanesulfonate, reference compound]
Mean plate counts (revertant colonies) [9, 15]: 2510.7±123.6 | Mean plate counts (revertant colonies) [10, 15]: 1238.7±126.0

COc1ccc(CCN(C)CCCC(C#N)(c2ccc(OC)c(OC)c2)C(C)C)cc1OC (stereo not shown) [Verapamil, reference compound]
fb (bound fraction) (plasma protein): 0.907 ± 0.007
